Test results published in publication PMC11440035, “Interaction of myricetin, ampelopsin (dihydromyricetin), and their sulfate metabolites with serum albumin, cytochrome P450 (CYP2C9, 2C19, and 3A4) enzymes, and organic anion‐transporting polypeptides (OATP1B1 and OATP2B1)” (Pharmacology Research & Perspectives, 2024).

Columns and labels:
OATP1B1 [1] = target: T1, OATP1B1 (Homo sapiens, UniProt Q9Y6L6); parameters: method as in PMID 32661014; settings: positive control, same experimental model; cited from earlier work
T1 construct: expressed in transfected cells; host or cells: A431
T1 sequence (Q9Y6L6 1-691): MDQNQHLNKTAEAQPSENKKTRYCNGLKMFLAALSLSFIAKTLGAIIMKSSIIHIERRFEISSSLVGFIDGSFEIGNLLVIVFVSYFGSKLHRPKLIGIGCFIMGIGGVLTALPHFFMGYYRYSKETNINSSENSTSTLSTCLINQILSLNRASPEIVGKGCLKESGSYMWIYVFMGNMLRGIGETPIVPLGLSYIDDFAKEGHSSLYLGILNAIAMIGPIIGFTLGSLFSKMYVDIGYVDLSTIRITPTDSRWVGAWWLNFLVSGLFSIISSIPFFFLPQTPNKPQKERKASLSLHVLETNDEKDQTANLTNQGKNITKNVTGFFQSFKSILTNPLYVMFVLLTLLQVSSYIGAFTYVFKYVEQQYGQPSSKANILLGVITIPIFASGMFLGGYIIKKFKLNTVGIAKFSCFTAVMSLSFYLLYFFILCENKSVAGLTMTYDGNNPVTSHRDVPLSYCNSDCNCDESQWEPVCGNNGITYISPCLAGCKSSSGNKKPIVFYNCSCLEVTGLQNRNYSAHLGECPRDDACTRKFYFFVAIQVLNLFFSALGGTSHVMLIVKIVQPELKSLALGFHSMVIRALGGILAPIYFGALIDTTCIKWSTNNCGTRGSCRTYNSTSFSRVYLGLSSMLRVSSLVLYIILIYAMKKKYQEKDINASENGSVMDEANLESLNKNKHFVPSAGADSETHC

OATP2B1 [2] = target: T2, OATP2B1 (Homo sapiens, UniProt O94956); parameters: method as in PMID 32661014; settings: positive control, same experimental model; cited from earlier work
T2 construct: expressed in transfected cells; host or cells: A431
T2 sequence (O94956 1-709): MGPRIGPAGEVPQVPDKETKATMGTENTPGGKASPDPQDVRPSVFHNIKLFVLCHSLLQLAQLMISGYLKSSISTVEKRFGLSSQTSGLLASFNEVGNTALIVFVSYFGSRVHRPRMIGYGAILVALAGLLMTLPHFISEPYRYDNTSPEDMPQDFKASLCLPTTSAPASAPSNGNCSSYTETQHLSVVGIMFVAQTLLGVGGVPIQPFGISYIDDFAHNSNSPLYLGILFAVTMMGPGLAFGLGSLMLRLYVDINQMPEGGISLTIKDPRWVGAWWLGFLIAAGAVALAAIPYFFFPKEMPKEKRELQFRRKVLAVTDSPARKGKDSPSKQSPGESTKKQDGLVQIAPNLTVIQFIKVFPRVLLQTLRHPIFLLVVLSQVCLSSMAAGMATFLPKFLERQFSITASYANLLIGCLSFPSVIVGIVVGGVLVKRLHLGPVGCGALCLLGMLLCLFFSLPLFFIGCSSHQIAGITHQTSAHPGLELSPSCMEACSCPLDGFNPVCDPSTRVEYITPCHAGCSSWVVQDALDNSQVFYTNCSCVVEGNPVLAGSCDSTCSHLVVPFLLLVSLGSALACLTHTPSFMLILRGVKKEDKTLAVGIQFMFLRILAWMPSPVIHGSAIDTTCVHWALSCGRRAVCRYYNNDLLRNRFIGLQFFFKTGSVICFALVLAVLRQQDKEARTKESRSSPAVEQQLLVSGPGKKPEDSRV

OATP2B1 [3] = target: T2, OATP2B1; experiment: Uptake of flavonoids by A431-OATP2B1 versus mock cells (APB fluorescence); assay type: cell-based; settings: BSP 20 μM, M3′S 2 μM, 5 min
Description: (§1) Direct uptake of AMP, MYR, and their sulfate metabolites were examined in A431 cells overexpressing OATP1B1 or OATP2B1, and in their mock‐transfected controls using APB as a fluorescence enhancer. One day before the uptake measurements, the cells were seeded onto 96‐well plates at a density of 80 000 cells/well in DMEM (200 μL). The following day, the cell culture medium was removed, and the cells were rinsed thrice with PBS (200 μL). Thereafter, the cells were preincubated with HBSS (50 μL) for 5 min at 37°C. The uptake reaction was initiated by the addition of a further 50 μL of HBSS containing AMP, MYR, or their sulfate conjugates (10 μM). After incubating for 15 min at 37°C, the reaction was stopped by removing the supernatant and rinsing the cells three times with ice‐cold PBS. Then PBS buffer (200 μL) containing APB (250 μg/mL) and BSA (1 mg/mL) was added to each well.[35] The fluorescence was read using an Enspire plate reader using the wavelengths listed in Section 2.7.
(§2) The concentration‐dependent uptake of M3′S was also tested under the same conditions, except the cells were incubated with 0–10 μM M3′S for 2 min (OATP1B1) or 5 min (OATP2B1).
(§3) To test the effect of BSP (a known inhibitor of OATPs[44]) on the cellular uptake of M3′S, cells were preincubated with HBSS buffer (50 μL) with or without BSP (20 μM) for 5 min at 37°C. Thereafter, we added 50 μL of HBSS containing M3′S (final concentration: 2 μM), and cells were further incubated at 37°C for 2 min (OATP1B1) or 5 min (OATP2B1). The reaction was stopped by removing the supernatant. After washing the cells with ice‐cold PBS, a PBS buffer with APB/BSA was added. Fluorescence was determined by applying an Enspire plate reader at excitation/emission wavelengths of 480/540 nm.

OATP1B1 [4] = target: T1, OATP1B1; experiment: Uptake of flavonoids by A431-OATP1B1 versus mock cells (APB fluorescence); assay type: cell-based; settings: BSP 20 μM, M3′S 2 μM, 2 min
Description: as §1, §2, §3

[5] = tested on: T3, human serum albumin (HSA); parameters: method as in PMID 30562928, PMID 28135601; settings: same experimental conditions; cited from earlier work
T3 construct: purchased Merck (Darmstadt, Germany) A1653

CYP3A4 = tested on: T4, CYP3A4; experiment: CYP3A4 assay (testosterone hydroxylation), CypExpress human kit; assay type: biochemical; settings: 20 μM, 5 μM substrate
T4 construct: purchased Merck (Darmstadt, Germany)

CYP2C9 = settings: 20 μM test substance, 5 μM substrate

## O=C1OC(c2ccc(O)c(S(=O)(=O)O)c2)(c2ccc(O)c(S(=O)(=O)O)c2)c2c(Br)c(Br)c(Br)c(Br)c21 [BSP, bromosulfophthalein, reference compound]
OATP1B1 [1]
  IC50: 60 nM
OATP2B1 [2]
  IC50: 1300 nM
OATP2B1 [3]
  effect on uptake of M3′S into OATP2B1‐overexpressing cells: considerably decreased the uptake of M3′S
OATP1B1 [4]
  effect on uptake of M3′S into OATP1B1‐overexpressing cells: considerably decreased the uptake of M3′S

## O=c1cc(-c2ccccc2)oc2cc(OS(=O)(=O)O)cc(O)c12 [chrysin‐7‐sulfate]
[5]
  displacement of the site marker warfarin from HSA: almost completely displaced the site marker

## CC(=O)N1CCN(c2ccc(OCC3COC(Cn4ccnc4)(c4ccc(Cl)cc4Cl)O3)cc2)CC1 (centres unmarked) [ketoconazole]
CYP3A4
  effect on CYP3A4 metabolite formation: marked decreases in metabolite formation

## O=c1c(O)c(-c2ccc(O)c(OS(=O)(=O)O)c2)oc2cc(O)cc(O)c12 [quercetin‐3′‐sulfate]
[5]
  displacement of the site marker warfarin from HSA: almost completely displaced the site marker

## Nc1ccc(S(=O)(=O)Nc2ccnn2-c2ccccc2)cc1 [sulfaphenazole]
CYP2C9
  effect on CYP2C9‐catalyzed diclofenac hydroxylation (metabolite formation): marked decreases in metabolite formation
